Common to all, as to assay: G' assay (10 uM PL peptide), results of TABLE 7 and TABLE 12
Type in all cases: binding

Assay [1] deals with T1, PDZ protein (GST-PDZ fusion) (Homo sapiens, UniProt O75970).
T1 construct: made in house; host or cells: E. coli (DH5alpha, BL21 or JM109)
In outline:
(§1)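 Binding classes derive from A450 nm of bound biotin-tagged PL peptide. A score of 5 needs A450 above 4 in more than two repeats.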

The target in assay [2] is T2, PDZ protein (GST-PDZ fusion) (Homo sapiens, UniProt Q96JH8).
T2 construct: made in house; host or cells: E. coli (DH5alpha, BL21 or JM109)
T2 sequence (Q96JH8 1-1075): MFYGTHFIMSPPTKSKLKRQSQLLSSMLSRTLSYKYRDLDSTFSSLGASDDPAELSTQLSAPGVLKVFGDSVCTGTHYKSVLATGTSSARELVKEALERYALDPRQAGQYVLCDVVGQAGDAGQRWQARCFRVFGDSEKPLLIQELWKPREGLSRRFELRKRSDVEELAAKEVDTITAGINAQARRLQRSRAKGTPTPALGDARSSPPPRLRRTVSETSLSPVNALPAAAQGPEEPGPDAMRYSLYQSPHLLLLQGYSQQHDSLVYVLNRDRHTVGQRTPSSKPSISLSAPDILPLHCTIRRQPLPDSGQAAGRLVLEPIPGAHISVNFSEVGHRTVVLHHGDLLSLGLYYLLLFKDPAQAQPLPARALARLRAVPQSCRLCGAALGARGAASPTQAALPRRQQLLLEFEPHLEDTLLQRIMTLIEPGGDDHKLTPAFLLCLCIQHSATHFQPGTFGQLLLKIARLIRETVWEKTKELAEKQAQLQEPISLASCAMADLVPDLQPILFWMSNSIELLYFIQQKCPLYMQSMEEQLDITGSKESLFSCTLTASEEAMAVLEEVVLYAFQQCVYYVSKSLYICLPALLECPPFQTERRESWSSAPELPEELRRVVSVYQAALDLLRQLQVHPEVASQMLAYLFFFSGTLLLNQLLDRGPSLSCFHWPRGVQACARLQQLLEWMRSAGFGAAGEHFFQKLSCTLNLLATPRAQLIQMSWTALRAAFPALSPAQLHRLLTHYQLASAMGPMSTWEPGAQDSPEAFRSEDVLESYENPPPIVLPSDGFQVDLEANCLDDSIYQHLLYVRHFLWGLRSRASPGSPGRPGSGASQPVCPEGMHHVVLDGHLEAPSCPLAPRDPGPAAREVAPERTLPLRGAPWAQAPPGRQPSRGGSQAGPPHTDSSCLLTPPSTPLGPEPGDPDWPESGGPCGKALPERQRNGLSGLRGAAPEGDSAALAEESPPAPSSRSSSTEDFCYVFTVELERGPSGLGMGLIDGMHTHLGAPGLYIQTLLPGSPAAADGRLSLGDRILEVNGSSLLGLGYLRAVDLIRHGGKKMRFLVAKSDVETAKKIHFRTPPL
The settings on record: PDZ FLJ 10324, PDZ Domain 1. In outline: as §1

The target of assay [3] is T3, PDZ protein (GST-PDZ fusion) (Homo sapiens, UniProt Q02410).
T3 construct: made in house; host or cells: E. coli (DH5alpha, BL21 or JM109)
T3 sequence (Q02410 1-837): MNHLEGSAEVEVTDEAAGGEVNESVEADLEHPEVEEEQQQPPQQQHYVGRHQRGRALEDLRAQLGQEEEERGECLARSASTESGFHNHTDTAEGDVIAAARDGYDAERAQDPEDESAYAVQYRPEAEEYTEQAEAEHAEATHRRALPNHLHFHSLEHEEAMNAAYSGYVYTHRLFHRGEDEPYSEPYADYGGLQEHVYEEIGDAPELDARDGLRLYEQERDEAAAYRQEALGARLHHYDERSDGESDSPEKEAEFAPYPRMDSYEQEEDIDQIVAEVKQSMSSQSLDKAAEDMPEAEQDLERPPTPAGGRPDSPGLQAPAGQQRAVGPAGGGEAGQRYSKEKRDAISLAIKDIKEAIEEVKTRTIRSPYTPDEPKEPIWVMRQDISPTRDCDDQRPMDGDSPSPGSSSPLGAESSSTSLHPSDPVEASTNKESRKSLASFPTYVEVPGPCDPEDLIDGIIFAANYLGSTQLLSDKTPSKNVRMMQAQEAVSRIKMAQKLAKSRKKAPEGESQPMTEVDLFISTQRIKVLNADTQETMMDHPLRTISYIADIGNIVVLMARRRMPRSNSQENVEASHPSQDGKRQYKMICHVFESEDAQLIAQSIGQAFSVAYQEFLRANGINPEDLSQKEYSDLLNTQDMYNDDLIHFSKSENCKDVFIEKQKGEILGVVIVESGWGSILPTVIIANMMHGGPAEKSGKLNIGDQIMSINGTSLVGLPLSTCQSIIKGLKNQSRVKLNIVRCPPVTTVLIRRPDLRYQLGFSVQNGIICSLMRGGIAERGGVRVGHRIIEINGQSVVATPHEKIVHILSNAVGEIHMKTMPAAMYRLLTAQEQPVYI
The method, boiled down: as §1

Ends that are not written are not given here. Peptide text beside a SMILES is read from it. * marks the point of attachment. Biotin = O=C1N[C@H]2[C@H](CS[C@H]2CCCCC(=O)*)N1

T1 sequence (O75970 whole entry, the tested form may be a part): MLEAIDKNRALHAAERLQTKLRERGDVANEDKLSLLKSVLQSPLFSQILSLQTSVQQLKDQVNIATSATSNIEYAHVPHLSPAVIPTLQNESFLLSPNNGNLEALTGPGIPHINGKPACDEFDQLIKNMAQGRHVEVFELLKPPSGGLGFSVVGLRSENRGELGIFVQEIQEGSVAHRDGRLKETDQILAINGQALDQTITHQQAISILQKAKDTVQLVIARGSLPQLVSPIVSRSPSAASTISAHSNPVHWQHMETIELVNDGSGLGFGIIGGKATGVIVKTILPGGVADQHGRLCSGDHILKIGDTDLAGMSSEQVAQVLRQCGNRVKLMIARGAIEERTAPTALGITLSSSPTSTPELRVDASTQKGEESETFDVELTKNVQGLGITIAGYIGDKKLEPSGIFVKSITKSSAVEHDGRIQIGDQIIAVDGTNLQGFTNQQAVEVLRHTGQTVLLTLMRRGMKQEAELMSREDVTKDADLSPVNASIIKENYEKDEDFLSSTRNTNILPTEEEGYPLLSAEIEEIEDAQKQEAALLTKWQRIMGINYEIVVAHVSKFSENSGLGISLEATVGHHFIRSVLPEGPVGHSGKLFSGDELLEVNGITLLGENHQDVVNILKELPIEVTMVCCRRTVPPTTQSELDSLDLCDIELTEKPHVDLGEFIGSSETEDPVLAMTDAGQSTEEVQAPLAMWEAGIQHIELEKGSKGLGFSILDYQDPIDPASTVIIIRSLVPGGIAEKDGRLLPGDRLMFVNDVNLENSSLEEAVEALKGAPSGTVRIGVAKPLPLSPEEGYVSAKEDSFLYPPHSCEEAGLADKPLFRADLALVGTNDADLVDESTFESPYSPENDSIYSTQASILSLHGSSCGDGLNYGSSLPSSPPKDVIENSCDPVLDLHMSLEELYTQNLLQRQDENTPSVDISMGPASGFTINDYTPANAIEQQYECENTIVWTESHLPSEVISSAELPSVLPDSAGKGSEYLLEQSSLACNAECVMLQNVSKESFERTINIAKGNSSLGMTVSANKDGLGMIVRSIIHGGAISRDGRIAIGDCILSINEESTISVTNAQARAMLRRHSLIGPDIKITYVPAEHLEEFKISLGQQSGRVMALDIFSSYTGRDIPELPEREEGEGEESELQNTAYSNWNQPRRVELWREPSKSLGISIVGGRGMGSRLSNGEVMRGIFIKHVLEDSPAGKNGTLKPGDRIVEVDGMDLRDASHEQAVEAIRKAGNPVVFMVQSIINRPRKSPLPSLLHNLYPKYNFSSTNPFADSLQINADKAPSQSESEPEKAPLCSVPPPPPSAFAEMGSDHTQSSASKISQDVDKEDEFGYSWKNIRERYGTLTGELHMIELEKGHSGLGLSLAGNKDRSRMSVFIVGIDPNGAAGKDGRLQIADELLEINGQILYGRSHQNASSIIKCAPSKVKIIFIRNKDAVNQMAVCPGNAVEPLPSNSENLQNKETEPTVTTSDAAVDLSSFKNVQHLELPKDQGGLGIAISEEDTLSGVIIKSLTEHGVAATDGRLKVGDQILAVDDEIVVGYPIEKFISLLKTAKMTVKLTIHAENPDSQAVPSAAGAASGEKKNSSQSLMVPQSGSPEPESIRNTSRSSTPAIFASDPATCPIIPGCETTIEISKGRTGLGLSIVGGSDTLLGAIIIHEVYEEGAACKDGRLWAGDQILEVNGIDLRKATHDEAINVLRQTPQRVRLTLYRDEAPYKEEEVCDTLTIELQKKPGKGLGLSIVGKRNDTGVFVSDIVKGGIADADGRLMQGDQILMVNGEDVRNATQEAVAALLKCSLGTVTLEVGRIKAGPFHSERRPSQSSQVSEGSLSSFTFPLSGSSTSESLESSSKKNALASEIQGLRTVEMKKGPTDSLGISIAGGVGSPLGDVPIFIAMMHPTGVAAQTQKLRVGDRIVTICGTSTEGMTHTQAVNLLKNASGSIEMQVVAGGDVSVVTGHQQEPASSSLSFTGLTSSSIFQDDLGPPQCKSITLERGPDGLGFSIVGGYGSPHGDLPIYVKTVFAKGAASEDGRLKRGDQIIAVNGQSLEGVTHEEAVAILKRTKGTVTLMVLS

Turning to `CC[C@H](C)[C@H](NC(=O)[C@H](Cc1ccc(O)cc1)NC(=O)[C@@H](NC(=O)[C@@H]1CCCN1C(=O)[C@H](CCC(N)=O)NC(=O)[C@H](CCC(=O)O)NC(=O)[C@H](CCC(N)=O)NC(=O)[C@H](C)NC(=O)[C@@H](NC(=O)[C@H](CC(C)C)NC(=O)[C@H](CC(C)C)NC(=O)[C@H](CCCNC(=N)N)NC(=O)[C@H](Cc1ccc(O)cc1)NC(=O)[C@H](CCSC)NC(=O)[C@H](C)NC(=O)[C@H](C)NC(=O)[C@@H]1CCCN1C(=O)[C@H](CCSC)NC(=O)[C@@H](NC(=O)[C@H](CCCCN)NC(=O)CCCC[C@@H]1SC[C@@H]2NC(=O)N[C@@H]21)[C@@H](C)O)[C@@H](C)O)C(C)C)C(=O)O` [MINT-1] (Biotin-KTMPAAMYRLLTAQEQPVYI-OH; C-terminus assumed), the Classification in assay [1] (PDZ MUPP-1, PDZ Domain 1) is 1 (A450 nm 0-1); in assay [1] (PDZ MUPP-1, PDZ Domain 2) it was 1 (A450 nm 0-1); in assay [1] (PDZ MUPP-1, PDZ Domain 3), 3 (A450 nm 2-3); in assay [1] (PDZ MUPP-1, PDZ Domain 5), 2 (A450 nm 1-2); in assay [1] (PDZ MUPP-1, PDZ Domain 7), 3 (A450 nm 2-3); in assay [1] (PDZ MUPP-1, PDZ Domain 9), 3 (A450 nm 2-3). Further, the Classification in assay [1] (PDZ MUPP-1, PDZ Domain 10) was 1 (A450 nm 0-1); in assay [1] (PDZ MUPP-1, PDZ Domain 11) it was 5 (A450 nm of 4 more than 2× repeated); in assay [2], 5 (A450 nm of 4 more than 2× repeated); in assay [3] (PDZ Mint 1, PDZ Domain 1) it was 3 (A450 nm 2-3); in assay [3] (PDZ Mint 1, PDZ Domain 1, 2), 5 (A450 nm of 4 more than 2× repeated).
For `CC[C@H](C)[C@H](NC(=O)[C@H](CCCCN)NC(=O)[C@@H](NC(=O)[C@H](CO)NC(=O)[C@@H]1CCCN1C(=O)[C@H](Cc1ccccc1)NC(=O)[C@@H](NC(=O)[C@@H](NC(=O)[C@H](CCCNC(=N)N)NC(=O)[C@H](CCC(=O)O)NC(=O)[C@H](CC(C)C)NC(=O)[C@H](CC(C)C)NC(=O)[C@H](CC(C)C)NC(=O)[C@@H](NC(=O)CNC(=O)[C@@H](NC(=O)CCCC[C@@H]1SC[C@@H]2NC(=O)N[C@@H]21)C(C)C)[C@@H](C)O)C(C)C)[C@@H](C)CC)C(C)C)C(=O)N[C@@H](C)C(=O)N[C@H](C(=O)N[C@@H](CC(C)C)C(=O)N[C@H](C(=O)O)C(C)C)[C@@H](C)O` [Adenovirus E4 Type9], the Classification is 1 (A450 nm 0-1) in assay [1] (PDZ MUPP-1, PDZ Domain 10, PL peptide 10 uM); 5 (A450 nm of 4 more than 2× repeated) in assay [1] (PDZ MUPP-1, PDZ Domain 11, Protein Optimal Conc 5); 3 (A450 nm 2-3) in assay [2] (Protein Optimal Conc 5); 2 (A450 nm 1-2) in assay [3] (PDZ Mint 1, PDZ Domain 1, 2, PL peptide 10 uM); 2 (A450 nm 1-2) in assay [3] (PDZ Mint 1, PDZ Domain 2, PL peptide 10 uM).
On to “ELLQFCRTPNPALKNGQYWV (Biotin-ELLQFCRTPNPALKNGQYWV)”, for which the Classification is given as 2 (A450 nm 1-2) in assay [1] (PDZ MUPP-1, PDZ Domain 1); 5 (A450 nm of 4 more than 2× repeated) in assay [1] (PDZ MUPP-1, PDZ Domain 2); 5 (A450 nm of 4 more than 2× repeated) in assay [1] (PDZ MUPP-1, PDZ Domain 5); 2 (A450 nm 1-2) in assay [1] (PDZ MUPP-1, PDZ Domain 8); 4 (A450 nm 3-4) in assay [1] (PDZ MUPP-1, PDZ Domain 10); 5 (A450 nm of 4 more than 2× repeated) in assay [1] (PDZ MUPP-1, PDZ Domain 11). In addition, the Classification in assay [1] (PDZ MUPP-1, PDZ Domain 12) is reported as 1 (A450 nm 0-1); in assay [2] it was 5 (A450 nm of 4 more than 2× repeated); in assay [3] (PDZ Mint 1, PDZ Domain 1) it was 2 (A450 nm 1-2); in assay [3] (PDZ Mint 1, PDZ Domain 1, 2), 5 (A450 nm of 4 more than 2× repeated); in assay [3] (PDZ Mint 1, PDZ Domain 2), 5 (A450 nm of 4 more than 2× repeated).
`CC[C@H](C)[C@H](NC(=O)[C@H](C)NC(=O)[C@H](CC(C)C)NC(=O)[C@H](Cc1c[nH]c2ccccc12)NC(=O)[C@H](Cc1c[nH]cn1)NC(=O)[C@H](CCC(N)=O)NC(=O)[C@H](CC(C)C)NC(=O)[C@H](CCC(N)=O)NC(=O)[C@H](Cc1ccccc1)NC(=O)[C@H](CCC(N)=O)NC(=O)[C@H](CCCNC(=N)N)NC(=O)[C@@H](NC(=O)[C@H](CC(=O)O)NC(=O)[C@H](CCCNC(=N)N)NC(=O)[C@H](CCC(N)=O)NC(=O)[C@H](C)NC(=O)[C@@H](NC(=O)[C@H](CC(C)C)NC(=O)[C@H](Cc1c[nH]cn1)NC(=O)[C@H](Cc1c[nH]cn1)NC(=O)CCCC[C@@H]1SC[C@@H]2NC(=O)N[C@@H]21)C(C)C)[C@@H](C)CC)C(=O)O` [noradrenaline transporter] (Biotin-HHLVAQRDIRQFQLQHWLAI-OH; C-terminus assumed): the Classification in assay [1] (PDZ MUPP-1, PDZ Domain 3) is 4 (A450 nm 3-4); in assay [1] (PDZ MUPP-1, PDZ Domain 7), 3 (A450 nm 2-3); in assay [1] (PDZ MUPP-1, PDZ Domain 9), 3 (A450 nm 2-3); in assay [2], 3 (A450 nm 2-3); in assay [3] (PDZ Mint 1, PDZ Domain 1, 2), 3 (A450 nm 2-3).
Regarding “ISGTPTSTMVHGMTSSSSVV (Biotin-ISGTPTSTMVHGMTSSSSVV) [Clasp-2]”, the Classification in assay [1] (PDZ MUPP-1, PDZ Domain 10) was 1 (A450 nm 0-1); in assay [1] (PDZ MUPP-1, PDZ Domain 13), 1 (A450 nm 0-1); in assay [2] it was 1 (A450 nm 0-1); in assay [3] (PDZ Mint 1, PDZ Domain 1, 2), 1 (A450 nm 0-1).

The values above are taken from US20050282743A1, “Molecular interactions in cells” (Arbor Vita Corporation, priority 2001, published 2005).
